The values below come from patent US20240050370A1, “TRIPLE STABILIZER SYSTEM” (Bayer Aktiengesellschaft, priority 2022, published 2024).

This data set is described as follows: Viscosity by rotational viscometry (MCR 302e, concentric cylinder). The conditions noted are these: 2 wt % HPC, 0.2 wt % anionic surfactant, PVPK12 0 to 16 wt %. It counts as physicochemical. Here is the method: Viscosity was measured with rotational viscometry with a modular compact rheometer (MCR) 302e (Anton Paar). A concentric cylinder geometry was used. Shear rate was varied logarithmic from 0.1 1/s to 1000 1/s. 6 measurement points per decade were used. The measurement time was varied from 10 s for a shear rate of 0.1 1/s and is for 1000 1/s. Shear rate vs. Shear stress was plotted. The slope described the viscosity. The shear rate independent viscosity was evaluated, and the middle value was used.
Viscosity was measured with rotational viscometry with a modular compact rheometer (MCR) 302e (Anton Paar). A concentric cylinder geometry was used. Shear rate was varied logarithmic from 0.1 1/s to 1000 1/s. 6 measurement points per decade were used. The measurement time was varied form 10 s for a shear rate of 0.1 1/s and is for 1000 1/s.

SMILES strings stand for the structures.

On to `C[C@H](CCC(=O)[O-])[C@H]1CC[C@H]2[C@@H]3CC[C@@H]4C[C@H](O)CC[C@]4(C)[C@H]3C[C@H](O)[C@]12C.[Na+]` [Na-Deoxycholate], for which the “Impact of anionic surfactant on viscosity reduction induced by PVPK12 addition (FIG. 5)” value is on record as “do not show a reduction of viscosity”.
Turning to `CCCCCCCCCCCCOS(=O)(=O)[O-].[Na+]` [SDS, sodium dodecyl sulfate], the “Impact of anionic surfactant on viscosity reduction induced by PVPK12 addition (FIG. 5)” value is reported as “strongest impact”.
